Patent publication US7772241B2, “Variolin derivatives and their use as antitumor agents” (Pharma Mar S.A., priority 2001, dated 2010)
Where two headings read alike, the source gives them in different places.

Key:
SK-MEL-28 = experiment: Inhibition of cells growth by colorimetric (SRB) assay, SK-MEL-28
Outline: (§1)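 Read-out is sulforhodamine B protein stain (OD 490 nm) after cold TCA fixation, following 48 h continuous exposure to samples spanning 10 to 10^−8 μg/ml.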

LoVo-Dox = experiment: Inhibition of cells growth by colorimetric (SRB) assay, LoVo-Dox
Outline: as §1

A-549 = experiment: Inhibition of cells growth by colorimetric (SRB) assay, A-549
Outline: as §1

SK-BR-3 = experiment: Inhibition of cells growth by colorimetric (SRB) assay, SK-BR-3
Outline: as §1

SK-OV-3 = experiment: Inhibition of cells growth by colorimetric (SRB) assay, SK-OV-3
Outline: as §1

LNCaP = experiment: Inhibition of cells growth by colorimetric (SRB) assay, LNCaP
Outline: as §1

[1] = Inhibition of cells growth by colorimetric (SRB) assay, HMEC1; conditions: human, HMEC1 cells, LC50 H-MEC-1, SRB assay, 48 hours exposure
HMEC1 = experiment: as above; conditions: for GI50: Homo sapiens, HMEC-1, 48 h, read-out: GI50 H-MEC-1, SRB assay, 48 hours exposure; for TGI H-MEC-1: SRB assay, 48 hours exposure, in M (unit assumed)
K-562 = experiment: Inhibition of cells growth by colorimetric (SRB) assay, K-562
Outline: as §1

PANC-1 = experiment: Inhibition of cells growth by colorimetric (SRB) assay, PANC-1
Outline: as §1

IGROV-ET = experiment: Inhibition of cells growth by colorimetric (SRB) assay, IGROV-ET
Outline: as §1

HT-29 = experiment: Inhibition of cells growth by colorimetric (SRB) assay, HT-29
Outline: as §1

LoVo = experiment: Inhibition of cells growth by colorimetric (SRB) assay, LoVo
Outline: as §1

IGROV-1 = experiment: Inhibition of cells growth by colorimetric (SRB) assay, IGROV-1
Outline: as §1

DU-145 = experiment: Inhibition of cells growth by colorimetric (SRB) assay, DU-145
Outline: as §1

For `Cl.Nc1nccc2c(-c3ccncn3)c3c(O)ccnc3n12` [Compound 101], the “TGI MEL-28” value (SK-MEL-28; SRB assay, 48 hours exposure) was 1.07E−05, the GI50 (SK-MEL-28; read-out: GI50 MEL-28, SRB assay, 48 hours exposure) was 5.22 µM and the CC50 (SK-MEL-28; read-out: LC50 MEL-28, SRB assay, 48 hours exposure) was 21.9 µM. For the same compound, the “TGI LOVO-DOX” value (LoVo-Dox; SRB assay, 48 hours exposure) was 1.59E−05, the GI50 (LoVo-Dox; read-out: GI50 LOVO-DOX, SRB assay, 48 hours exposure) was 2.35 µM and the CC50 (LoVo-Dox; read-out: LC50 LOVO-DOX, SRB assay, 48 hours exposure) was no less than 33.9 µM. For the same compound, the “TGI A-549” value (A-549; SRB assay, 48 hours exposure) was 1.09E−05, the GI50 (A-549; read-out: GI50 A-549, SRB assay, 48 hours exposure) was 2.39 µM and the CC50 (A-549; read-out: LC50 A-549, SRB assay, 48 hours exposure) was no less than 33.9 µM. The “TGI SK-BR-3” value (SK-BR-3; SRB assay, 48 hours exposure) was 8.77E−07, the GI50 (SK-BR-3; read-out: GI50 SK-BR-3, SRB assay, 48 hours exposure) was 0.128 µM and the CC50 (SK-BR-3; read-out: LC50 SK-BR-3, SRB assay, 48 hours exposure) was 10.2 µM. For the same compound, the “TGI SKOV-3” value (SK-OV-3; SRB assay, 48 hours exposure) was 1.41E−05, the GI50 (SK-OV-3; read-out: GI50 SKOV-3, SRB assay, 48 hours exposure) was 4.44 µM and the CC50 (SK-OV-3; read-out: LC50 SKOV-3, SRB assay, 48 hours exposure) was no less than 33.9 µM. For the same compound, the “TGI LN-caP” value (LNCaP; SRB assay, 48 hours exposure) was 1.32E−07, the GI50 (LNCaP; read-out: GI50 LN-caP, SRB assay, 48 hours exposure) was 0.0224 µM and the CC50 (LNCaP; read-out: LC50 LN-caP, SRB assay, 48 hours exposure) was 4.74 µM. For the same compound, the CC50 at 48 h [1] was 0.0444 µM, the GI50 (HMEC1) was 0.00677 µM and the “TGI H-MEC-1” value (HMEC1) was 1.57E−08. The “TGI K-562” value (K-562; SRB assay, 48 hours exposure) was 1.79E−05, the GI50 (K-562; read-out: GI50 K-562, SRB assay, 48 hours exposure) was 5.55 µM and the CC50 (K-562; read-out: LC50 K-562, SRB assay, 48 hours exposure) was no less than 33.9 µM. The “TGI PANC-1” value (PANC-1; SRB assay, 48 hours exposure) was 4.88E−06, the GI50 (PANC-1; read-out: GI50 PANC-1, SRB assay, 48 hours exposure) was 0.149 µM and the CC50 (PANC-1; read-out: LC50 PANC-1, SRB assay, 48 hours exposure) was no less than 33.9 µM. For the same compound, the “TGI IGROV-ET” value (IGROV-ET; SRB assay, 48 hours exposure) was 2.08E−05, the GI50 (IGROV-ET; read-out: GI50 IGROV-ET, SRB assay, 48 hours exposure) was 6.6 µM and the CC50 (IGROV-ET; read-out: LC50 IGROV-ET, SRB assay, 48 hours exposure) was no less than 33.9 µM. The “TGI HT-29” value (HT-29; SRB assay, 48 hours exposure) was 2.35E−05, the GI50 (HT-29; read-out: GI50 HT-29, SRB assay, 48 hours exposure) was 8.87 µM and the CC50 (HT-29; read-out: LC50 HT-29, SRB assay, 48 hours exposure) was no less than 33.9 µM. The “TGI LOVO” value (LoVo; SRB assay, 48 hours exposure) was 1.41E−05, the GI50 (LoVo; read-out: GI50 LOVO, SRB assay, 48 hours exposure) was 3.52 µM and the CC50 (LoVo; read-out: LC50 LOVO, SRB assay, 48 hours exposure) was no less than 33.9 µM. The “TGI IGROV” value (IGROV-1; SRB assay, 48 hours exposure) was 1.06E−05, the GI50 (IGROV-1; read-out: GI50 IGROV, SRB assay, 48 hours exposure) was 3.79 µM and the CC50 (IGROV-1; read-out: LC50 IGROV, SRB assay, 48 hours exposure) was 29.6 µM. For the same compound, the “TGI DU-145” value (DU-145; SRB assay, 48 hours exposure) was 1.80E−06, the GI50 (DU-145; read-out: GI50 DU-145, SRB assay, 48 hours exposure) was 0.118 µM and the CC50 (DU-145; read-out: LC50 DU-145, SRB assay, 48 hours exposure) was no less than 30.3 µM.
In the case of `Nc1nccc(-c2c3cc(F)c(Cl)nc3n3c(N)nccc23)n1` [Compound 50], the GI50 (SK-MEL-28; Homo sapiens, SK-MEL-28, 48 h, read-out: GI50 MEL-28, SRB assay, 48 hours exposure) is reported as no less than 30.3 µM, the CC50 (SK-MEL-28; Homo sapiens, SK-MEL-28, 48 h, read-out: LC50 MEL-28, SRB assay, 48 hours exposure) is reported as no less than 30.3 µM and the “TGI MEL-28” value (SK-MEL-28; SRB assay, 48 hours exposure) is reported as 3.03E−05. The GI50 (LoVo-Dox; Homo sapiens, 48 h, read-out: GI50 LOVO-DOX, SRB assay, 48 hours exposure) was 12.6 µM, the CC50 (LoVo-Dox; Homo sapiens, 48 h, read-out: LC50 LOVO-DOX, SRB assay, 48 hours exposure) was no less than 30.3 µM and the “TGI LOVO-DOX” value (LoVo-Dox; SRB assay, 48 hours exposure) was 3.03E−05. For the same compound, the GI50 (A-549; Homo sapiens, A549, 48 h, read-out: GI50 A-549, SRB assay, 48 hours exposure) was 5.25 µM, the CC50 (A-549; Homo sapiens, A549, 48 h, read-out: LC50 A-549, SRB assay, 48 hours exposure) was no less than 30.3 µM and the “TGI A-549” value (A-549; SRB assay, 48 hours exposure) was 3.03E−05. For the same compound, the GI50 (SK-BR-3; Homo sapiens, SK-BR-3, 48 h, read-out: GI50 SK-BR-3, SRB assay, 48 hours exposure) was 11.6 µM, the CC50 (SK-BR-3; Homo sapiens, SK-BR-3, 48 h, read-out: LC50 SK-BR-3, SRB assay, 48 hours exposure) was no less than 30.3 µM and the “TGI SK-BR-3” value (SK-BR-3; SRB assay, 48 hours exposure) was 3.03E−05. For the same compound, the GI50 (SK-OV-3; Homo sapiens, SK-OV-3, 48 h, read-out: GI50 SKOV-3, SRB assay, 48 hours exposure) was 15.8 µM, the CC50 (SK-OV-3; Homo sapiens, SK-OV-3, 48 h, read-out: LC50 SKOV-3, SRB assay, 48 hours exposure) was no less than 30.3 µM and the “TGI SKOV-3” value (SK-OV-3; SRB assay, 48 hours exposure) was 3.03E−05. The GI50 (LNCaP; Homo sapiens, LNCaP, 48 h, read-out: GI50 LN-caP, SRB assay, 48 hours exposure) was 0.886 µM, the CC50 (LNCaP; Homo sapiens, LNCaP, 48 h, read-out: LC50 LN-caP, SRB assay, 48 hours exposure) was no less than 30.3 µM and the “TGI LN-caP” value (LNCaP; SRB assay, 48 hours exposure) was 1.88E−06. The CC50 at 48 h [1] was no less than 30.3 µM, the GI50 (HMEC1) was 8.01 µM and the “TGI H-MEC-1” value (HMEC1) was 2.44E−05. The GI50 (K-562; Homo sapiens, K562, 48 h, read-out: GI50 K-562, SRB assay, 48 hours exposure) was no less than 30.3 µM, the CC50 (K-562; Homo sapiens, K562, 48 h, read-out: LC50 K-562, SRB assay, 48 hours exposure) was no less than 30.3 µM and the “TGI K-562” value (K-562; SRB assay, 48 hours exposure) was 3.03E−05. For the same compound, the GI50 (PANC-1; Homo sapiens, PANC-1, 48 h, read-out: GI50 PANC-1, SRB assay, 48 hours exposure) was no less than 30.3 µM, the CC50 (PANC-1; Homo sapiens, PANC-1, 48 h, read-out: LC50 PANC-1, SRB assay, 48 hours exposure) was no less than 30.3 µM and the “TGI PANC-1” value (PANC-1; SRB assay, 48 hours exposure) was 3.03E−05. The GI50 (IGROV-ET; Homo sapiens, 48 h, read-out: GI50 IGROV-ET, SRB assay, 48 hours exposure) was 12.9 µM, the CC50 (IGROV-ET; Homo sapiens, 48 h, read-out: LC50 IGROV-ET, SRB assay, 48 hours exposure) was no less than 30.3 µM and the “TGI IGROV-ET” value (IGROV-ET; SRB assay, 48 hours exposure) was 3.03E−05. For the same compound, the GI50 (HT-29; Homo sapiens, HT-29, 48 h, read-out: GI50 HT-29, SRB assay, 48 hours exposure) was no less than 30.3 µM, the CC50 (HT-29; Homo sapiens, HT-29, 48 h, read-out: LC50 HT-29, SRB assay, 48 hours exposure) was no less than 30.3 µM and the “TGI HT-29” value (HT-29; SRB assay, 48 hours exposure) was 3.03E−05. The GI50 (LoVo; Homo sapiens, LoVo, 48 h, read-out: GI50 LOVO, SRB assay, 48 hours exposure) was 12 µM, the CC50 (LoVo; Homo sapiens, LoVo, 48 h, read-out: LC50 LOVO, SRB assay, 48 hours exposure) was no less than 30.3 µM and the “TGI LOVO” value (LoVo; SRB assay, 48 hours exposure) was 3.03E−05. The GI50 (IGROV-1; Homo sapiens, IGROV-1, 48 h, read-out: GI50 IGROV, SRB assay, 48 hours exposure) was 20.3 µM, the CC50 (IGROV-1; Homo sapiens, IGROV-1, 48 h, read-out: LC50 IGROV, SRB assay, 48 hours exposure) was no less than 30.3 µM and the “TGI IGROV” value (IGROV-1; SRB assay, 48 hours exposure) was 3.03E−05. The GI50 (DU-145; Homo sapiens, DU-145, 48 h, read-out: GI50 DU-145, SRB assay, 48 hours exposure) was 16.5 µM, the CC50 (DU-145; Homo sapiens, DU-145, 48 h, read-out: LC50 DU-145, SRB assay, 48 hours exposure) was no less than 30.3 µM and the “TGI DU-145” value (DU-145; SRB assay, 48 hours exposure) was 3.03E−05.
